{"source": "patent US20140051875A1", "about": "“CRYSTALLINE FORM OF MAXACALCITOL” (FORMOSA LABORATORIES INC., priority 2012, published 2014)", "key": {"[1]": {"conditions": "cited from earlier work"}, "[2]": {"experiment": "Storage stability of maxacalcitol hydrate under an inert gas atmosphere", "format": "physicochemical", "conditions": "under an inert gas atmosphere at 25° C.", "text": "In a preferred embodiment, the maxacalcitol hydrate is stored in an amber vial."}}, "note": "Where two headings read alike, the source gives them in different places."}
{"compound": "C=C1/C(=C\\C=C2/CCC[C@]3(C)[C@@H]([C@H](C)OCCC(C)(C)O)CC[C@@H]23)C[C@@H](O)C[C@@H]1O", "note": "[maxacalcitol, (+)-(5Z,7E,20S)-20-(3-Hydroxy-3-methylbutoxy)-9,10-secopregna-5,7,10(19)-triene-1α,3β-diol]", "values": [{"measurement": "stability: decomposed after storage (time)", "setting": "[1]; amber vial under inert gas environment at 25° C.", "value": 4, "unit": "weeks"}, {"measurement": "stability: stable for (storage time)", "setting": "[1]; amber vial under inert gas environment at −20° C.", "value": 6, "unit": "months"}, {"measurement": "stability: stable for (storage time)", "setting": "[1]; amber vial under inert gas environment at −80° C.", "value": 36, "unit": "months"}, {"measurement": "decomposition on storage", "setting": "[1]; at 25° C., according to the JP interview form", "value": "considerable degree of decomposition"}]}
{"compound": "C=C1/C(=C\\C=C2/CCC[C@]3(C)[C@@H]([C@H](C)OCCC(C)(C)O)CC[C@@H]23)C[C@@H](O)C[C@@H]1O", "note": "[maxacalcitol hydrate]", "values": [{"measurement": "stability to storage: no degradation for (time)", "setting": "[2]", "value": "at least 32 days"}]}
